# Experiments:
# Assay in all cases: Microbiological challenge testing in BPW broth, graded subculture counts
# Type in all cases: cell-based
# [1] = test system: Escherichia coli ATCC 25922; conditions: E. Coli
# Procedure: (§1) The microorganisms in the table below were used in challenge tests. They were either ATCC (American Type Culture Collection) or “wild type” as indicated. Wild type organisms were problematic organisms previously isolated from chemical products.
# (§2) All of the microorganisms were grown in Tryptose Soy Broth (TSB), DIFCO™ available from Becton, Dickinson and Company, containing 1% dextrose. Candida albicans and Aspergillus niger, were incubated at 22° C.+/−2° C. for at least 96 hours. All bacteria were incubated at 35° C.+/−2° C. in a humidified incubator for at least 96 hours.
# (§3) The following procedure was followed to determine the amount of each challenge material (inoculum broth) needed to produce a 10^8 CFU/mL challenge, which is equivalent to a final test-sample microbial concentration of 10^5 to 10^6 CFU/mL (CFU=colony forming units).
# (§4) Using a sterile pipette, 1 mL of the growth from each TSB culture was transferred into tubes of 9 mL buffered water (pH 7.2 phosphate buffer) and mixed thoroughly. This was repeated to make serial 1:10 dilutions. Then, 0.1 mL of each sample and dilution was inoculated onto agar plates to produce the equivalent of a further 1:10 dilution. (C. albicans and A. niger were inoculated onto SABD and bacteria were inoculated onto Plate Count Agar (PCA), DIFCO™ available from Becton, Dickinson and Company.) (The normal volume plated for most samples was 0.1 mL. Some samples that could be very low in micro-organisms (high dilutions) were plated using 0.5 mL of inoculum, in order to produce reproducible counts.) The samples were distributed on the plates using the spread-plate technique. The spread-plate technique is carried out by spreading the sample over the entire plate surface using a sterile spreading rod while rotating the plate with a rotary auto-plater. After the inoculum was absorbed completely by the agar, each plate was inverted and incubated (fungi at 22° C.+/−2° C. and bacteria at 35° C.+/−2° C.).
# (§5) After incubation for at least 48 hours, colonies that had developed on the agar plates were counted (CFU) and recorded with the corresponding dilution. If counting had to be delayed temporarily, plates were refrigerated, preferably no more than 24 hours, until they could be counted. The number of CFU/mL was determined by multiplying the plate count by the dilution factor of the plate counted.
# (§6) Turbidity in Nepholemetric Turbidity Units (NTU) was measured for each serial dilution using the HF-Micro 100 Model Turbidimeter. For each microorganism, the plate counts were compared to the turbidity readings.
# (§7) Control substrates (“broth alone”) were prepared for each microorganism separately in triplicate by adding 13.5 mL of Buffered Peptone Water broth (BPW) containing 1% dextrose to each 20-mL glass tube, then adding 1.5 mL challenge material to produce a final concentration at time zero of 10^5 to 10^6 CFU/mL and a total volume of 15 mL.
# (§8) Test sample substrates were prepared containing each test material listed below at the concentrations shown for challenge testing with each microorganism separately. Sample substrates were prepared in triplicate, except the substrates containing butoxyethanol which were prepared in duplicate. Substrates were prepared by adding BPW containing 1% dextrose to each 20-mL glass tube, then adding the test material in the amount appropriate to achieve the desired weight/volume percent and to achieve a total volume of BPW plus dextrose plus test material of 13.5 mL. Then 1.5 mL challenge material was added to produce a final concentration at time zero of 10^5 to 10^6 CFU/mL and a total test sample substrate volume of 15 mL.
# [2] = test system: Bacillus subtilis Wild type
# Procedure: as §1, §2, §3, §4, §5, §6, §7, §8
# [3] = test system: Proteus vulgaris Wild type
# Procedure: as §1, §2, §3, §4, §5, §6, §7, §8
# [4] = test system: Streptococcus mutans ATCC 35668
# Procedure: as §1, §2, §3, §4, §5, §6, §7, §8
structure (smiles),measurement,setting,value
"OCC1CCCC(CO)C1 (stereo not drawn) [1,3-CHDM, 1,3-cyclohexanedimethanol]",Grade,"[1]; 2.5% (wt/vol), 3 day","5 (More than 10,000 colonies estimated (thus more than 100,000 CFU/mL))"
same,Grade,"[1]; 2.5% (wt/vol), 14 day","4 (1000 to 10,000 colonies countable (thus 10,000 CFU/mL to 100,000 CFU/mL))"
same,Grade,"[1]; 2.5% (wt/vol), 30 day","4 (1000 to 10,000 colonies countable (thus 10,000 CFU/mL to 100,000 CFU/mL))"
same,Grade,"[1]; 5.0% (wt/vol), 3 day","4 (1000 to 10,000 colonies countable (thus 10,000 CFU/mL to 100,000 CFU/mL))"
same,Grade,"[1]; 5.0% (wt/vol), 14 day","3 (100 to 1000 colonies (thus 1000 to 10,000 CFU/mL))"
same,Grade,"[1]; 5.0% (wt/vol), 30 day","4 (1000 to 10,000 colonies countable (thus 10,000 CFU/mL to 100,000 CFU/mL))"
same,"B. subtillis growth grade, 3 day",[2]; 0.5% weight/volume,"4 (1000 to 10,000 colonies countable (thus 10,000 CFU/mL to 100,000 CFU/mL))"
same,"B. subtillis growth grade, 14 day",[2]; 0.5% weight/volume,"4 (1000 to 10,000 colonies countable (thus 10,000 CFU/mL to 100,000 CFU/mL))"
same,"B. subtillis growth grade, 30 day",[2]; 0.5% weight/volume,"4 (1000 to 10,000 colonies countable (thus 10,000 CFU/mL to 100,000 CFU/mL))"
same,"B. subtillis growth grade, 3 day",[2]; 1.25% weight/volume,"4 (1000 to 10,000 colonies countable (thus 10,000 CFU/mL to 100,000 CFU/mL))"
same,"B. subtillis growth grade, 14 day",[2]; 1.25% weight/volume,"4 (1000 to 10,000 colonies countable (thus 10,000 CFU/mL to 100,000 CFU/mL))"
same,"B. subtillis growth grade, 30 day",[2]; 1.25% weight/volume,"4 (1000 to 10,000 colonies countable (thus 10,000 CFU/mL to 100,000 CFU/mL))"
same,"B. subtillis growth grade, 3 day",[2]; 2.5% weight/volume,"4 (1000 to 10,000 colonies countable (thus 10,000 CFU/mL to 100,000 CFU/mL))"
same,"B. subtillis growth grade, 14 day",[2]; 2.5% weight/volume,"4 (1000 to 10,000 colonies countable (thus 10,000 CFU/mL to 100,000 CFU/mL))"
same,"B. subtillis growth grade, 30 day",[2]; 2.5% weight/volume,"4 (1000 to 10,000 colonies countable (thus 10,000 CFU/mL to 100,000 CFU/mL))"
same,"B. subtillis growth grade, 3 day",[2]; 5.0% weight/volume,"4 (1000 to 10,000 colonies countable (thus 10,000 CFU/mL to 100,000 CFU/mL))"
same,"B. subtillis growth grade, 14 day",[2]; 5.0% weight/volume,"4 (1000 to 10,000 colonies countable (thus 10,000 CFU/mL to 100,000 CFU/mL))"
same,"B. subtillis growth grade, 30 day",[2]; 5.0% weight/volume,"4 (1000 to 10,000 colonies countable (thus 10,000 CFU/mL to 100,000 CFU/mL))"
same,"P. vulgaris growth grade, 3 day",[3]; 0.5% weight/volume,"5 (More than 10,000 colonies estimated (thus more than 100,000 CFU/mL))"
same,"P. vulgaris growth grade, 13 day",[3]; 0.5% weight/volume,"5 (More than 10,000 colonies estimated (thus more than 100,000 CFU/mL))"
same,"P. vulgaris growth grade, 30 day",[3]; 0.5% weight/volume,"5 (More than 10,000 colonies estimated (thus more than 100,000 CFU/mL))"
same,"P. vulgaris growth grade, 3 day",[3]; 1.25% weight/volume,"5 (More than 10,000 colonies estimated (thus more than 100,000 CFU/mL))"
same,"P. vulgaris growth grade, 13 day",[3]; 1.25% weight/volume,"4 (1000 to 10,000 colonies countable (thus 10,000 CFU/mL to 100,000 CFU/mL))"
same,"P. vulgaris growth grade, 30 day",[3]; 1.25% weight/volume,"4 (1000 to 10,000 colonies countable (thus 10,000 CFU/mL to 100,000 CFU/mL))"
same,"P. vulgaris growth grade, 3 day",[3]; 2.5% weight/volume,"4 (1000 to 10,000 colonies countable (thus 10,000 CFU/mL to 100,000 CFU/mL))"
same,"P. vulgaris growth grade, 13 day",[3]; 2.5% weight/volume,"4 (1000 to 10,000 colonies countable (thus 10,000 CFU/mL to 100,000 CFU/mL))"
same,"P. vulgaris growth grade, 30 day",[3]; 2.5% weight/volume,"4 (1000 to 10,000 colonies countable (thus 10,000 CFU/mL to 100,000 CFU/mL))"
same,"P. vulgaris growth grade, 3 day",[3]; 5.0% weight/volume,"4 (1000 to 10,000 colonies countable (thus 10,000 CFU/mL to 100,000 CFU/mL))"
same,"P. vulgaris growth grade, 13 day",[3]; 5.0% weight/volume,"4 (1000 to 10,000 colonies countable (thus 10,000 CFU/mL to 100,000 CFU/mL))"
same,"P. vulgaris growth grade, 30 day",[3]; 5.0% weight/volume,"4 (1000 to 10,000 colonies countable (thus 10,000 CFU/mL to 100,000 CFU/mL))"
same,"S. mutans growth grade, 3 day",[4]; 0.5% weight/volume,"5 (More than 10,000 colonies estimated (thus more than 100,000 CFU/mL))"
same,"S. mutans growth grade, 13 day",[4]; 0.5% weight/volume,"4 (1000 to 10,000 colonies countable (thus 10,000 CFU/mL to 100,000 CFU/mL))"
same,"S. mutans growth grade, 30 day",[4]; 0.5% weight/volume,"4 (1000 to 10,000 colonies countable (thus 10,000 CFU/mL to 100,000 CFU/mL))"
same,"S. mutans growth grade, 3 day",[4]; 1.25% weight/volume,"4 (1000 to 10,000 colonies countable (thus 10,000 CFU/mL to 100,000 CFU/mL))"
same,"S. mutans growth grade, 13 day",[4]; 1.25% weight/volume,"4 (1000 to 10,000 colonies countable (thus 10,000 CFU/mL to 100,000 CFU/mL))"
same,"S. mutans growth grade, 30 day",[4]; 1.25% weight/volume,"4 (1000 to 10,000 colonies countable (thus 10,000 CFU/mL to 100,000 CFU/mL))"
same,"S. mutans growth grade, 3 day",[4]; 2.5% weight/volume,"4 (1000 to 10,000 colonies countable (thus 10,000 CFU/mL to 100,000 CFU/mL))"
same,"S. mutans growth grade, 13 day",[4]; 2.5% weight/volume,"4 (1000 to 10,000 colonies countable (thus 10,000 CFU/mL to 100,000 CFU/mL))"
same,"S. mutans growth grade, 30 day",[4]; 2.5% weight/volume,"4 (1000 to 10,000 colonies countable (thus 10,000 CFU/mL to 100,000 CFU/mL))"
same,"S. mutans growth grade, 3 day",[4]; 5.0% weight/volume,2 (52 to 100 colonies counted (thus 520 to 1000 CFU/mL))
same,"S. mutans growth grade, 13 day",[4]; 5.0% weight/volume,0
same,"S. mutans growth grade, 30 day",[4]; 5.0% weight/volume,0

# From patent US20100160454A1, “ANTIMICROBIAL AGENTS, COMPOSITIONS AND PRODUCTS CONTAINING THE SAME, AND METHODS OF USING THE COMPOSITIONS AND PRODUCTS” (Eastman Chemical Company, priority 2008, published 2010)
